According to ChEMBL document CHEMBL2440066, “Acidic biphenyl derivatives: synthesis and biological activity of a new series of potent 5-HT(4) receptor antagonists” (Bioorg Med Chem, 2013):

system: not listed separately; test: Apparent permeability of the compound in human Caco2 cells at 1 uM; format: ADME, cell-based; conditions: Caco-2

SMILES	Papp at 1 µM
CS(=O)(=O)O.Cc1oc(=O)oc1COC(=O)c1ccccc1-c1ccc(CN2CCC(COC(=O)c3c4n(c5ccccc35)CCCO4)CC2)cc1	16.1 ×10⁻⁶ cm/s
CC(=O)OCOC(=O)c1ccccc1-c1ccc(CN2CCC(COC(=O)c3c4n(c5ccccc35)CCCO4)CC2)cc1.CS(=O)(=O)O	1.4 ×10⁻⁶ cm/s
CC(C)CCOC(=O)c1ccccc1-c1ccc(CN2CCC(COC(=O)c3c4n(c5ccccc35)CCCO4)CC2)cc1.CS(=O)(=O)O	5.4 ×10⁻⁶ cm/s
Cl.O=C(OCc1ccccc1)c1ccccc1-c1ccc(CN2CCC(COC(=O)c3c4n(c5ccccc35)CCCO4)CC2)cc1	1.1 ×10⁻⁶ cm/s
CS(=O)(=O)O.O=C(O)c1ccccc1-c1ccc(CN2CCC(COC(=O)c3c4n(c5ccccc35)CCCO4)CC2)cc1	0.8 ×10⁻⁶ cm/s
CC(C)(C)C(=O)OCn1nnc(-c2ccccc2-c2ccc(CN3CCC(COC(=O)c4c5n(c6ccccc46)CCCO5)CC3)cc2)n1.CS(=O)(=O)O	5.1 ×10⁻⁶ cm/s
O=C(OCC1CCN(Cc2ccc(-c3ccccc3-c3nn[nH]n3)cc2)CC1)c1c2n(c3ccccc13)CCCO2	2.9 ×10⁻⁶ cm/s

system: 3T3-L1; test: Cytotoxicity against mouse 3T3L1 cells assessed as cell death at 5 ug/ml after 72 hrs by neutral red assay; format: cell-based; conditions: 3t3-l1, 72 h

SMILES	Activity
CS(=O)(=O)O.O=C(O)c1ccccc1-c1ccc(CN2CCC(COC(=O)c3c4n(c5ccccc35)CCCO4)CC2)cc1	14%
O=C(OCC1CCN(Cc2ccc(-c3ccccc3-c3nn[nH]n3)cc2)CC1)c1c2n(c3ccccc13)CCCO2	0%

target: T1, hERG (KCNH2) (Homo sapiens, UniProt Q12809); test: Inhibition of human ERG expressed in HEK293 cells at 50 uM by patch-clamp technique; format: cell-based; conditions: HEK293 cells that express hERG
T1 sequence (Q12809 whole entry): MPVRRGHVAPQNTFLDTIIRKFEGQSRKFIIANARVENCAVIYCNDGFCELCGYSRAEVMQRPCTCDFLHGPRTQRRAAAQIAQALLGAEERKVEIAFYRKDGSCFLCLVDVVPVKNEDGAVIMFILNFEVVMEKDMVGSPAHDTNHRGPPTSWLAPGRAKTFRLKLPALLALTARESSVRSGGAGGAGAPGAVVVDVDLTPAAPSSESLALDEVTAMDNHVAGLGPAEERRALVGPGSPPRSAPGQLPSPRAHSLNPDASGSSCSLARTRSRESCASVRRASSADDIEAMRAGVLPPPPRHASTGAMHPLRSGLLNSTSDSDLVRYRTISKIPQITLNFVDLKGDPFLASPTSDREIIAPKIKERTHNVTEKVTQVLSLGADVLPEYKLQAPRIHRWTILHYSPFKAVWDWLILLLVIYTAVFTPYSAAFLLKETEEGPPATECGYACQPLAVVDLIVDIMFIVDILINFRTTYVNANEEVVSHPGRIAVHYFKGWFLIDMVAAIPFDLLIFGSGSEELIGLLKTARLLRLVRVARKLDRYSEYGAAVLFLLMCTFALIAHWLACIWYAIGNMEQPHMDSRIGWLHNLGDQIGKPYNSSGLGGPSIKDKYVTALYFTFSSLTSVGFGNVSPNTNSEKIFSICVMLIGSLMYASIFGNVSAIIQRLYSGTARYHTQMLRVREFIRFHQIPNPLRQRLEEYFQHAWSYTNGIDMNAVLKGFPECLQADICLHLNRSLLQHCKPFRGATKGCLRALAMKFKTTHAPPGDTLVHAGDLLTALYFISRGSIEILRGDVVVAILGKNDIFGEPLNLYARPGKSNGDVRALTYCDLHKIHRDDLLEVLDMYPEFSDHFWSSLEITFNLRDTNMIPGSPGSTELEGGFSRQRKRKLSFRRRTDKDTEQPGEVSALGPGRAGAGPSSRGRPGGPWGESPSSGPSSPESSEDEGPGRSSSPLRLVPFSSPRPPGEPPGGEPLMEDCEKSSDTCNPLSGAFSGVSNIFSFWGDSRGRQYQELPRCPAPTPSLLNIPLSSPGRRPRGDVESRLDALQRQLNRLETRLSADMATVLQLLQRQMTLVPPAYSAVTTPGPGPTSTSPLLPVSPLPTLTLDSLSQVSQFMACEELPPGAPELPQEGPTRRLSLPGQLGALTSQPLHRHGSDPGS

SMILES	inhibition at 50 µM
O=C(OCC1CCN(Cc2ccc(-c3ccccc3-c3nn[nH]n3)cc2)CC1)c1c2n(c3ccccc13)CCCO2	35%

target: T2, Type-1 angiotensin II receptor (Homo sapiens, UniProt P30556); test: Displacement of [tyrosyl-3,5-3H]angiotensin-2 from AT1 receptor (unknown origin) expressed in QBI-HEK293A cells after 2 hrs; format: cell-based, HEK293-A; conditions: not given
T2 sequence (P30556 whole entry): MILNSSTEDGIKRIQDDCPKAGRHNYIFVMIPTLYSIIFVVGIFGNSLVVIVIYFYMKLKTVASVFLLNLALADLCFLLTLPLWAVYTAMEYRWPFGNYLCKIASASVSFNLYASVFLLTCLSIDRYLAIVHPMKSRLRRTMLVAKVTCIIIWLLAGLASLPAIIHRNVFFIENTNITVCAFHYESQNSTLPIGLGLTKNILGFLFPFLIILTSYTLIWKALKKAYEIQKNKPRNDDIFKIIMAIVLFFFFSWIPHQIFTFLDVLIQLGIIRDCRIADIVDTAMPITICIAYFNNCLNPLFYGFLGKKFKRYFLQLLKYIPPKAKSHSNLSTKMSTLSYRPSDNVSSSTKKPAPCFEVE

SMILES	Ki
CS(=O)(=O)O.O=C(O)c1ccccc1-c1ccc(CN2CCC(COC(=O)c3c4n(c5ccccc35)CCCO4)CC2)cc1	1580 nM
O=C(OCC1CCN(Cc2ccc(-c3ccccc3-c3nn[nH]n3)cc2)CC1)c1c2n(c3ccccc13)CCCO2	> 10000 nM

target: Voltage-gated inwardly rectifying potassium channel KCNH2 (Homo sapiens, UniProt Q12809); test: Inhibition of human ERG expressed in HEK293 cells by patch-clamp technique; format: cell-based; conditions: not given
Sequence (Q12809 whole entry): as the sequence (Q12809 whole entry) above

SMILES	IC50
CS(=O)(=O)O.O=C(O)c1ccccc1-c1ccc(CN2CCC(COC(=O)c3c4n(c5ccccc35)CCCO4)CC2)cc1	47500 nM
O=C(OCC1CCN(Cc2ccc(-c3ccccc3-c3nn[nH]n3)cc2)CC1)c1c2n(c3ccccc13)CCCO2	27500 nM

target: T3, 5-hydroxytryptamine receptor 4 (Homo sapiens, UniProt Q13639); test: Antagonist activity at human 5HT4B receptor expressed in HEK293 cells assessed as inhibition of 5HT-stimulated adenylyl cyclase activity; format: functional, cell-based; conditions: not given
T3 sequence (Q13639 whole entry): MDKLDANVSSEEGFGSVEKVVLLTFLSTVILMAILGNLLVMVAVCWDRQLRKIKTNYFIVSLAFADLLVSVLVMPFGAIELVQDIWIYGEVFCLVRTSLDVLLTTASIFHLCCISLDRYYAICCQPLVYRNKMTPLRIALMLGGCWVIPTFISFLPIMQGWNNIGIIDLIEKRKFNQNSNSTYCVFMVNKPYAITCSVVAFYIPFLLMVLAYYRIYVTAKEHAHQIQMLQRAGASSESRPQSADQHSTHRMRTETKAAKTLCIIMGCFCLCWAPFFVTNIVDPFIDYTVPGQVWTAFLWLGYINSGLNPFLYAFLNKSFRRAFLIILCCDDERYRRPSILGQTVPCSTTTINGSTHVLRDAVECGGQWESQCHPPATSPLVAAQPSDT

SMILES	pKb
CS(=O)(=O)O.O=C(O)c1ccccc1-c1ccc(CN2CCC(COC(=O)c3c4n(c5ccccc35)CCCO4)CC2)cc1	9.8

target: T1, hERG (KCNH2); test: Inhibition of human ERG expressed in HEK293 cells at 100 uM by patch-clamp technique; format: cell-based; conditions: HEK293 cells that express hERG

SMILES	inhibition at 100 µM
CS(=O)(=O)O.O=C(O)c1ccccc1-c1ccc(CN2CCC(COC(=O)c3c4n(c5ccccc35)CCCO4)CC2)cc1	31%

target: T3, 5-hydroxytryptamine receptor 4; test: Displacement of [3H]GR113808 from human 5HT4B receptor expressed in HEK293 cells; format: cell-based; conditions: not given

SMILES	Ki
CS(=O)(=O)O.O=C(O)c1ccccc1-c1ccc(CN2CCC(COC(=O)c3c4n(c5ccccc35)CCCO4)CC2)cc1	0.0501 nM
O=C(OCC1CCN(Cc2ccc(-c3ccccc3-c3nn[nH]n3)cc2)CC1)c1c2n(c3ccccc13)CCCO2	2.51 nM

system: not listed separately; test: Octanol-buffer partition coefficient, log D of the compound at pH 7.4; format: physicochemical; conditions: not given

SMILES	logD
CS(=O)(=O)O.Cc1oc(=O)oc1COC(=O)c1ccccc1-c1ccc(CN2CCC(COC(=O)c3c4n(c5ccccc35)CCCO4)CC2)cc1	4.6
CC(=O)OCOC(=O)c1ccccc1-c1ccc(CN2CCC(COC(=O)c3c4n(c5ccccc35)CCCO4)CC2)cc1.CS(=O)(=O)O	4.5
CC(C)CCOC(=O)c1ccccc1-c1ccc(CN2CCC(COC(=O)c3c4n(c5ccccc35)CCCO4)CC2)cc1.CS(=O)(=O)O	4.9
Cl.O=C(OCc1ccccc1)c1ccccc1-c1ccc(CN2CCC(COC(=O)c3c4n(c5ccccc35)CCCO4)CC2)cc1	5.1
CS(=O)(=O)O.O=C(O)c1ccccc1-c1ccc(CN2CCC(COC(=O)c3c4n(c5ccccc35)CCCO4)CC2)cc1	1.3
CC(C)(C)C(=O)OCn1nnc(-c2ccccc2-c2ccc(CN3CCC(COC(=O)c4c5n(c6ccccc46)CCCO5)CC3)cc2)n1.CS(=O)(=O)O	4.3
O=C(OCC1CCN(Cc2ccc(-c3ccccc3-c3nn[nH]n3)cc2)CC1)c1c2n(c3ccccc13)CCCO2	1.6
